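GI50 marks 50% less growth. The concentration for full growth arrest is given as TGI.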
Experiments:
Test in all cases: NCI tumour cell line growth inhibition, 384-well format
MDA-MB-468 breast = system: MDA-MB-468 breast
A498 renal = system: A498 renal
SR leukemia = system: SR leukemia
SK-MEL-2 melanoma = system: SK-MEL-2 melanoma
OVCAR-5 ovarian = system: OVCAR-5 ovarian
SW-620 colon = system: SW-620 colon
T-47D breast = system: T-47D breast
HL-60(TB) leukemia = system: HL-60(TB) leukemia
ACHN renal = system: ACHN renal
NCI-H322M lung = system: NCI-H322M lung
SK-OV-3 ovarian = system: SK-OV-3 ovarian
A549 NSCLC = system: A549 NSCLC
M14 melanoma = system: M14 melanoma
SF-295 CNS = system: SF-295 CNS
SNB-19 CNS = system: SNB-19 CNS
NCI-H522 lung = system: NCI-H522 lung
CAKI-1 renal = system: CAKI-1 renal
SF-268 CNS = system: SF-268 CNS
NCI/ADR-RES ovarian = system: NCI/ADR-RES ovarian
SK-MEL-28 melanoma = system: SK-MEL-28 melanoma
MALME-3M melanoma = system: MALME-3M melanoma
CCRF-CEM leukemia = system: CCRF-CEM leukemia
UACC-257 melanoma = system: UACC-257 melanoma
PC-3 prostate = system: PC-3 prostate
HS 578T breast = system: HS 578T breast
SF-539 CNS = system: SF-539 CNS
OVCAR-3 ovarian = system: OVCAR-3 ovarian
UACC-62 melanoma = system: UACC-62 melanoma
RPMI-8226 leukemia = system: RPMI-8226 leukemia
MDA-MB-231 breast = system: MDA-MB-231 breast
BT-549 breast = system: BT-549 breast
SK-MEL-5 melanoma = system: SK-MEL-5 melanoma
HCT-15 colon = system: HCT-15 colon
MOLT-4 leukemia = system: MOLT-4 leukemia
RXF 393 renal = system: RXF 393 renal
MDA-MB-435 melanoma = system: MDA-MB-435 melanoma
DU-145 prostate = system: DU-145 prostate
NCI-H460 NSCLC = system: NCI-H460 NSCLC
OVCAR-8 ovarian = system: OVCAR-8 ovarian
HOP-62 NSCLC = system: HOP-62 NSCLC
SN12C renal = system: SN12C renal
HOP-92 NSCLC = system: HOP-92 NSCLC
COLO 205 colon = system: COLO 205 colon
KM12 colon = system: KM12 colon
NCI-H226 lung = system: NCI-H226 lung
IGROV1 ovarian = system: IGROV1 ovarian
TK-10 renal = system: TK-10 renal
786-0 renal = system: 786-0 renal
MCF7 breast = system: MCF7 breast
NCI-H23 lung = system: NCI-H23 lung
SNB-75 CNS = system: SNB-75 CNS
U251 glioblastoma = system: U251 glioblastoma
EKVX NSCLC = system: EKVX NSCLC
OVCAR-4 ovarian = system: OVCAR-4 ovarian
HT29 colon = system: HT29 colon

COc1ccc(-c2ccc(/C=C/C(=O)NO)cc2)cc1
GI50 (MDA-MB-468 breast): 292 nM | TGI (MDA-MB-468 breast): 578 nM | GI50 (A498 renal): 1860 nM | TGI (A498 renal): 11200 nM | GI50 (SR leukemia): 195 nM | TGI (SR leukemia): 368 nM | GI50 (SK-MEL-2 melanoma): 472 nM | TGI (SK-MEL-2 melanoma): 1140 nM | GI50 (OVCAR-5 ovarian): 1940 nM | TGI (OVCAR-5 ovarian): 5930 nM | GI50 (SW-620 colon): 1820 nM | TGI (SW-620 colon): 10200 nM | GI50 (T-47D breast): 1400 nM | TGI (T-47D breast): 5260 nM | GI50 (HL-60(TB) leukemia): 255 nM | TGI (HL-60(TB) leukemia): 524 nM | GI50 (ACHN renal): 2100 nM | TGI (ACHN renal): 4230 nM | GI50 (NCI-H322M lung): 3100 nM | TGI (NCI-H322M lung): 33300 nM | GI50 (SK-OV-3 ovarian): 349 nM | TGI (SK-OV-3 ovarian): 1560 nM | GI50 (A549 NSCLC): 431 nM | TGI (A549 NSCLC): 11600 nM | GI50 (M14 melanoma): 1450 nM | TGI (M14 melanoma): 3280 nM | GI50 (SF-295 CNS): 2840 nM | TGI (SF-295 CNS): 14200 nM | GI50 (SNB-19 CNS): 2520 nM | TGI (SNB-19 CNS): 11900 nM | GI50 (NCI-H522 lung): 373 nM | TGI (NCI-H522 lung): 1480 nM | GI50 (CAKI-1 renal): 1750 nM | TGI (CAKI-1 renal): 5590 nM | GI50 (SF-268 CNS): 967 nM | TGI (SF-268 CNS): 2870 nM | GI50 (NCI/ADR-RES ovarian): 527 nM | TGI (NCI/ADR-RES ovarian): 1620 nM | GI50 (SK-MEL-28 melanoma): 2600 nM | TGI (SK-MEL-28 melanoma): 7200 nM | GI50 (MALME-3M melanoma): 1180 nM | TGI (MALME-3M melanoma): 3920 nM | GI50 (CCRF-CEM leukemia): 128 nM | TGI (CCRF-CEM leukemia): 258 nM | GI50 (UACC-257 melanoma): 1380 nM | TGI (UACC-257 melanoma): 8800 nM | GI50 (PC-3 prostate): 818 nM | TGI (PC-3 prostate): 9740 nM | GI50 (HS 578T breast): 2850 nM | TGI (HS 578T breast): 9630 nM | GI50 (SF-539 CNS): 525 nM | TGI (SF-539 CNS): 2200 nM | GI50 (OVCAR-3 ovarian): 237 nM | TGI (OVCAR-3 ovarian): 531 nM | GI50 (UACC-62 melanoma): 1930 nM | TGI (UACC-62 melanoma): 4350 nM | GI50 (RPMI-8226 leukemia): 262 nM | TGI (RPMI-8226 leukemia): 548 nM | GI50 (MDA-MB-231 breast): 391 nM | TGI (MDA-MB-231 breast): 1730 nM | GI50 (BT-549 breast): 624 nM | TGI (BT-549 breast): 3510 nM | GI50 (SK-MEL-5 melanoma): 421 nM | TGI (SK-MEL-5 melanoma): 1580 nM | GI50 (HCT-15 colon): 332 nM | TGI (HCT-15 colon): 2730 nM | GI50 (MOLT-4 leukemia): 166 nM | TGI (MOLT-4 leukemia): 329 nM | GI50 (RXF 393 renal): 298 nM | TGI (RXF 393 renal): 1130 nM | GI50 (MDA-MB-435 melanoma): 4260 nM | TGI (MDA-MB-435 melanoma): 64700 nM | GI50 (DU-145 prostate): 1300 nM | TGI (DU-145 prostate): 3540 nM | GI50 (NCI-H460 NSCLC): 626 nM | TGI (NCI-H460 NSCLC): 2500 nM | GI50 (OVCAR-8 ovarian): 562 nM | TGI (OVCAR-8 ovarian): 2120 nM | GI50 (HOP-62 NSCLC): 760 nM | TGI (HOP-62 NSCLC): 2580 nM | GI50 (SN12C renal): 1290 nM | TGI (SN12C renal): 3810 nM | GI50 (HOP-92 NSCLC): 986 nM | TGI (HOP-92 NSCLC): 4190 nM | GI50 (COLO 205 colon): 3310 nM | TGI (COLO 205 colon): 6560 nM | GI50 (KM12 colon): 1510 nM | TGI (KM12 colon): 16000 nM | GI50 (NCI-H226 lung): 457 nM | TGI (NCI-H226 lung): 2410 nM | GI50 (IGROV1 ovarian): 1680 nM | TGI (IGROV1 ovarian): 5020 nM | GI50 (TK-10 renal): 1820 nM | TGI (TK-10 renal): 7230 nM | GI50 (786-0 renal): 1140 nM | TGI (786-0 renal): 3650 nM | GI50 (MCF7 breast): 1410 nM | TGI (MCF7 breast): 4280 nM | GI50 (NCI-H23 lung): 728 nM | TGI (NCI-H23 lung): 2340 nM | GI50 (SNB-75 CNS): 466 nM | TGI (SNB-75 CNS): 4640 nM | GI50 (U251 glioblastoma): 1190 nM | TGI (U251 glioblastoma): 2850 nM | GI50 (EKVX NSCLC): 2280 nM | TGI (EKVX NSCLC): 11400 nM | GI50 (OVCAR-4 ovarian): 284 nM | TGI (OVCAR-4 ovarian): 12200 nM | GI50 (HT29 colon): 2720 nM | TGI (HT29 colon): 16300 nM

From PubChem BioAssay (NCI)
